Reference: the Kinase Knowledgebase extract (Sharma et al. 2016)

Legend:
[1] = target: EGFR (human) (UniProt P00533); conditions: h322m
[2] = target: EGFR (human) (UniProt P00533); conditions: caki-1
[3] = target: EGFR (human) (UniProt P00533); conditions: mda-n
[4] = target: EGFR (human) (UniProt P00533); conditions: k562
[5] = target: EGFR (human) (UniProt P00533); conditions: tk-10
[6] = target: EGFR (human) (UniProt P00533); conditions: uacc62
[7] = target: EGFR (human) (UniProt P00533); conditions: sk-ov-3
[8] = target: EGFR (human) (UniProt P00533); conditions: bt-549
[9] = target: EGFR (human) (UniProt P00533); conditions: hct 116
[10] = target: EGFR (human) (UniProt P00533); conditions: colo-205
[11] = target: EGFR (human) (UniProt P00533); conditions: mcf-7
[12] = target: EGFR (human) (UniProt P00533); conditions: ht-29
[13] = target: EGFR (human) (UniProt P00533); conditions: molt-4
[14] = target: EGFR (human) (UniProt P00533); conditions: delta
[15] = target: EGFR (human) (UniProt P00533); conditions: uacc-257
[16] = target: EGFR (human) (UniProt P00533); conditions: ovcar-5
[17] = target: EGFR (human) (UniProt P00533); conditions: hct-15
[18] = target: EGFR (human) (UniProt P00533); conditions: sr
[19] = target: EGFR (human) (UniProt P00533); conditions: ovcar-4
[20] = target: EGFR (human) (UniProt P00533); conditions: sw 620
[21] = target: EGFR (human) (UniProt P00533); conditions: t-47d
[22] = target: EGFR (human) (UniProt P00533); conditions: lox-imvi
[23] = target: EGFR (human) (UniProt P00533); conditions: h7 578t
[24] = target: EGFR (human) (UniProt P00533); conditions: h226
[25] = target: EGFR (human) (UniProt P00533); conditions: rpmi8226
[26] = target: EGFR (human) (UniProt P00533); conditions: km-12
[27] = target: EGFR (human) (UniProt P00533); conditions: uo-31
[28] = target: EGFR (human) (UniProt P00533); conditions: sk-mel-28
[29] = target: EGFR (human) (UniProt P00533); conditions: sn12c
[30] = target: EGFR (human) (UniProt P00533); conditions: HN5
[31] = target: EGFR (human) (UniProt P00533); conditions: ovcar-8
[32] = target: EGFR (human) (UniProt P00533); conditions: sf268
[33] = target: EGFR (human) (UniProt P00533); conditions: ekvx
[34] = target: EGFR (human) (UniProt P00533); conditions: siha
[35] = target: EGFR (human) (UniProt P00533); conditions: mcf7/adr-res
[36] = target: EGFR (human) (UniProt P00533); conditions: hcc2998
[37] = target: EGFR (human) (UniProt P00533); conditions: snb-75
[38] = target: EGFR (human) (UniProt P00533); conditions: sf-539
[39] = target: EGFR (human) (UniProt P00533); conditions: igr-ovi
[40] = target: EGFR (human) (UniProt P00533); conditions: caski
[41] = target: EGFR (human) (UniProt P00533); conditions: hn5
[42] = target: EGFR (human) (UniProt P00533); conditions: h460
[43] = target: EGFR (human) (UniProt P00533); conditions: achn
[44] = target: EGFR (human) (UniProt P00533); conditions: h23
[45] = target: EGFR (human) (UniProt P00533); conditions: a431
[46] = target: EGFR (human) (UniProt P00533); conditions: mda-mb-435
[47] = target: EGFR (human) (UniProt P00533); conditions: malme-3m
[48] = target: EGFR (human) (UniProt P00533); conditions: hop-62
[49] = target: EGFR (human) (UniProt P00533); conditions: ccrf-cem leukemia cell
[50] = target: EGFR (human) (UniProt P00533); conditions: mda-mb-231/atcc

Chain of EGFR (human) (P00533 whole entry, looked up): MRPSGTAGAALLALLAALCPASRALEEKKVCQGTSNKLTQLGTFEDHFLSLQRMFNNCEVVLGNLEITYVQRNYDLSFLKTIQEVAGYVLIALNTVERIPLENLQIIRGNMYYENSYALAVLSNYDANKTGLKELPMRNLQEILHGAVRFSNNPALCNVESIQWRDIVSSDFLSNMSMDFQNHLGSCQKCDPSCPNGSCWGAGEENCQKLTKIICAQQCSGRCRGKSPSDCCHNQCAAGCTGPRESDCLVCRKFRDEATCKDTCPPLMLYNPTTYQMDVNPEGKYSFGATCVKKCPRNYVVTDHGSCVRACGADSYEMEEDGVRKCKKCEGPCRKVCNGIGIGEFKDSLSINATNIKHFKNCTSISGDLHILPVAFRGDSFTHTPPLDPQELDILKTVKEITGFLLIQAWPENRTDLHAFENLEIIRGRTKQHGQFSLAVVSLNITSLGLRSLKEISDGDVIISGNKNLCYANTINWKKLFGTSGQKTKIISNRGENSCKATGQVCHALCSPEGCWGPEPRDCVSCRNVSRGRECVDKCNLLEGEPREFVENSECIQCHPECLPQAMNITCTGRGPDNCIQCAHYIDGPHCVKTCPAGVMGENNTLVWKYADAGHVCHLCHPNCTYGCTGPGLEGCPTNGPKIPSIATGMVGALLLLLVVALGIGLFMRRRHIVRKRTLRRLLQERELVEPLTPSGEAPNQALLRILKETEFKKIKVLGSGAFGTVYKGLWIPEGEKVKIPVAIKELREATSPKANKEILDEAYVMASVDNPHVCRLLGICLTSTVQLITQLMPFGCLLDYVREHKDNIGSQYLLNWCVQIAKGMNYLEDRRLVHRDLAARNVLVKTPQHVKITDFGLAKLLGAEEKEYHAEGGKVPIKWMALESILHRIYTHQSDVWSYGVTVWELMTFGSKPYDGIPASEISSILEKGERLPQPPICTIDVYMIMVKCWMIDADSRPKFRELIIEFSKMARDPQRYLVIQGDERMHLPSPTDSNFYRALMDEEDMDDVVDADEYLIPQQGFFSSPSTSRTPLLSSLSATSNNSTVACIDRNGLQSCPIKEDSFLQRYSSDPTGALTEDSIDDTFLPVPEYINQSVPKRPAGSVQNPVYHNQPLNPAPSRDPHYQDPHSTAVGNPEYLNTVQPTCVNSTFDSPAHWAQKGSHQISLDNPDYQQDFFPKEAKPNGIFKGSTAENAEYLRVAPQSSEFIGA

CCOC(=O)/C(C#N)=C/c1ccc([N+](=O)[O-])s1
Conditions	GI50 [µM]	IC50 [µM]
[1]	17	–
[2]	2.14	–
[3]	2.19	–
[4]	1.2	–
[5]	3.47	–
[6]	1.35	–
[7]	15.5	–
[8]	0.871	–
[9]	1.48	–
[10]	1.62	–
[11]	3.09	–
[12]	2.04	–
[13]	1.74	–
[14]	12	–
[15]	2.09	–
[16]	1.95	–
[17]	2.19	–
[18]	3.02	–
[19]	1.7	–
[20]	1.48	–
[21]	2.75	–
[22]	1.86	–
[23]	3.47	–
[24]	16.2	–
[25]	2.34	–
[26]	6.92	–
[27]	10.7	–
[28]	2.95	–
[29]	5.75	–
[30]	–	34
[31]	1.99	–
[32]	6.16	–
[33]	15.5	–
[34]	–	4.59
[35]	3.47	–
[36]	3.47	–
[37]	7.58	–
[38]	5.75	–
[39]	1.66	–
[40]	–	6.94
[41]	–	5.4
[42]	6.92	–
[43]	1.9	–
[44]	2.63	–
[45]	–	4.6
[46]	2.34	–
[47]	2.24	–
[48]	14.8	–
[49]	1.55	–
[50]	1.86	–

N#CC(C#N)=C(N)/C(C#N)=C/c1ccc([N+](=O)[O-])s1
Conditions	GI50 [µM]	IC50 [µM]
[1]	20.9	–
[2]	18.2	–
[3]	4.57	–
[4]	3.89	–
[5]	18.2	–
[6]	79.4	–
[7]	17.8	–
[8]	12.9	–
[9]	3.39	–
[10]	15.1	–
[11]	10.5	–
[12]	15.8	–
[13]	5.89	–
[14]	4.07	–
[15]	10.5	–
[16]	26.9	–
[17]	17.8	–
[18]	12	–
[19]	15.5	–
[20]	3.23	–
[21]	6.91	–
[22]	11.5	–
[23]	18.6	–
[24]	17.8	–
[25]	5.01	–
[26]	18.2	–
[27]	14.8	–
[28]	17	–
[29]	13.5	–
[30]	–	12.2
[31]	12.6	–
[32]	22.4	–
[33]	19.5	–
[34]	–	13.4
[35]	21.4	–
[36]	15.8	–
[37]	14.8	–
[38]	23.4	–
[39]	7.24	–
[40]	–	9.24
[41]	–	8.4
[42]	23.4	–
[43]	19.9	–
[44]	16.6	–
[45]	–	6.07
[46]	12.3	–
[47]	22.9	–
[48]	19.5	–
[49]	4.17	–
[50]	17	–

N#CC(C#N)=Cc1csc([N+](=O)[O-])c1
Conditions	GI50 [µM]	IC50 [µM]
[1]	74.1	–
[2]	24.5	–
[3]	19.9	–
[4]	27.5	–
[5]	45.7	–
[6]	17.8	–
[7]	59	–
[8]	27.5	–
[9]	16.2	–
[10]	27.5	–
[11]	41.7	–
[12]	21.9	–
[13]	23.4	–
[14]	1.99	–
[15]	19	–
[16]	59	–
[17]	33.9	–
[18]	30.2	–
[19]	28.8	–
[20]	43.6	–
[21]	22.9	–
[22]	30.9	–
[23]	28.2	–
[24]	> 100	–
[25]	31.6	–
[26]	35.5	–
[27]	15.1	–
[28]	16.2	–
[29]	34.7	–
[30]	–	23
[31]	19.5	–
[32]	38.9	–
[33]	> 100	–
[34]	–	44.6
[35]	37.1	–
[36]	26.9	–
[37]	25.1	–
[38]	41.7	–
[39]	24	–
[40]	–	40
[41]	–	40.4
[42]	54.9	–
[43]	19.5	–
[44]	30.2	–
[45]	–	28.4
[46]	20.9	–
[47]	33.9	–
[48]	25.7	–
[49]	23.4	–
[50]	26.3	–
